Results reported in patent US20040259934A1, “Inhibiting Coronaviridae viral replication and treating Coronaviridae viral infection with nucleoside compounds” (priority 2003, published 2004).

Key:
Human coronavirus OC43 [1] = test: Cytopathic effect (CPE) inhibition assay against a coronavirus; format: cell-based; settings: Betacoronavirus 1, OC43 / SC1, BSC-1, 144 h
Protocol: (§1) The assays employed to measure activity against coronavirus are described below (wherein CPE=cytopathic effect; FBS=fetal bovine serum; MEM=minimal essential medium; MOI=multiplicity of infection; and NR=neutral red):
(§2) Human coronavirus OC43 was obtained from the American Type Culture Collection (ATCC, Manassas, Va., USA). This virus was originally isolated from the tracheal washings of a person with cold-like symptoms.
(§3) B-SC-1 cells propagated from adult African green kidney cells were grown in MEM supplemented with 0.1% NaHCO3 and 10% FBS. When performing antiviral assays, serum was reduced to 2% and 50 μg/mL gentamicin was added to the medium.
Each compound was diluted in MEM using a four log dilution series (i.e., 100, 10, 1.0, 0.1 μg/ml) and 100 μL added to the appropriate wells of a 96 well cell culture plate with confluent cells (see plate format below). The coronavirus was diluted in MEM 2% FBS to an MOI=0.001 in a volume of 100 μL and added immediately to plate (usually within 5 minutes of drug addition). […] The plates were then scored for virus cytopathic effect at each dilution of compound tested. The 50% effective concentration (EC50) was calculated by regression analysis using the means of the CPE ratings at each concentration of compound.

Human coronavirus OC43 [2] = test: Neutral red uptake assay against a coronavirus; format: cell-based; settings: Betacoronavirus 1, OC43 / SC1, BSC-1
Protocol: as §1, §2, §3
After performing the CPE inhibition assay above, an additional cytopathic detection method was used, in which medium was removed from each well of a plate scored for CPE from a CPE inhibition assay, 0.034% NR was added to each well of the plate and the plate incubated for 2 hr at 37° C. in the dark. The NR solution was then removed from the wells. After rinsing and aspirating to dryness, the remaining dye was extracted for 30 min at room temperature in the dark from the cells using absolute ethanol buffered with Sörenson citrate buffer. […] Absorbances at 540 nm and 450 nm were read with a microplate reader (Bio-Tek EL 1309; Bio-Tek Instruments, Inc., Winooski, Vt.). Absorbance values were expressed as percentages of untreated controls and EC50 and IC50 values were calculated by regression analysis.

Row | SMILES | EC50 (Human coronavirus OC43 [1]) | EC50 (Human coronavirus OC43 [2])
1 | C[C@@]1(O)[C@H](O)[C@@H](CO)O[C@H]1n1cnc2c(N)ncnc21 [2′-C-methyladenosine] | < 100 µM | ≤ 10 µM
2 | C[C@@]1(O)[C@H](O)[C@@H](CO)O[C@H]1n1ccc(N)nc1=O [2′-C-methylcytidine] | < 100 µM | ≤ 10 µM
3 | C[C@@]1(O)[C@H](O)[C@@H](CO)O[C@H]1n1ccc2c(N)ncnc21 [Example 1, 4-Amino-7-(2-C-methyl-β-D-ribofuranosyl)-7H-pyrrolo[2,3-d]pyrimidine] | < 100 µM | ≤ 10 µM
